In test [1] the test system is E. coli TG1 + pBGS18 + FOX-4. Nature of the test: MIC broth microdilution, ceftazidime with or without inhibitor. Format: cell-based, Escherichia coli. The note with it: for MIC of ceftazidime in the presence of inhibitor: FOX-4 (Class C, ESBL), inhibitor concentration 16 μg mL^–1; for MIC: Escherichia coli. On the technique in general: Broth dilution looks for growth in wells or tubes with falling amounts of substance.

Test [2] deals with E. coli TG1 + pBGS18 + DHA-1. Described as above. Format: cell-based, Escherichia coli. The note with it: for MIC of ceftazidime in the presence of inhibitor: DHA-1 (Class C, ESBL), inhibitor concentration 16 μg mL^–1; for MIC: Escherichia coli.
Test [3] relates to E. coli MG1655 + pBGS18 + CTX-M-2. The description is as above. To be noted: for MIC of ceftazidime in the presence of inhibitor: CTX-M-2 (ESBL), inhibitor concentration 16 μg mL^–1. Format: cell-based, Escherichia coli.
Test [4] has as its system E. coli TG1 + pBGS18 + CMY-2. The description is as above. Format: cell-based, Escherichia coli. To be noted: for MIC of ceftazidime in the presence of inhibitor: CMY-2 (Class C, ESBL), inhibitor concentration 16 μg mL^–1; for MIC: Escherichia coli.
Test [5] concerns K. pneumoniae ΔompK35/36+ pBGS18+ OXA-48. Kind of test: MIC broth microdilution, imipenem with or without inhibitor. The note with it: for MIC of imipenem in the presence of inhibitor: OXA-48 (Class D, carbapenemase), inhibitor concentration 16 μg mL^–1; for MIC: Klebsiella pneumoniae. Format: cell-based, Klebsiella pneumoniae.
Test [6] concerns E. coli MG1655 + pBGS18 + CTX-M-14. Nature of the test: MIC broth microdilution, ampicillin with or without inhibitor. Format: cell-based, Escherichia coli. To be noted: CTX-M-14 (Class A, ESBL); inhibitor concentration 16 μg mL^–1; 20 h, 37 °C.
Test [7] has as its system P. aeruginosa PAO ΔampD (PDC-1). Kind of test: MIC broth microdilution, ceftazidime with or without inhibitor. Format: cell-based. The note with it: Pseudomonas aeruginosa.
The mark [8] stands for this setting: read-out: MIC of ceftazidime without an inhibitor.
Where [9] appears, read: read-out: MIC of ceftazidime, strain without β-lactamase.

Like-named read-outs stand apart in the source and are kept apart here.

On to `C[C@]1(COC(=O)CCc2ccc(O)c(O)c2)[C@H](C(=O)[O-])N2C(=O)/C(=C/c3ccccn3)[C@H]2S1(=O)=O.[Na+]` [Compound 3], for which the “MIC of ceftazidime in the presence of inhibitor” value in test [1] is recorded as 0.12 μg mL^–1; in test [2], at most 0.06 μg mL^–1; in test [3] it was 2 μg mL^–1; in test [4] it was at most 0.06 μg mL^–1. The “MIC of imipenem in the presence of inhibitor” value (from here on “MIC of imipenem … of inhibitor”) in test [5] was 16 μg mL^–1. Further, in test [6], the “MIC of ampicillin in the presence of inhibitor” value (“MIC of ampicillin … of inhibitor” below) amounted to 32 μg mL^–1.

For the compound `C[C@]1(COC(=O)c2ccncc2O)[C@H](C(=O)[O-])N2C(=O)/C(=C/c3ccccn3)[C@H]2S1(=O)=O.[Na+]` [Compound 7], the “MIC of ceftazidime in the presence of inhibitor” value came to 0.12 μg mL^–1 in test [1], 4 μg mL^–1 in test [2], 256 μg mL^–1 in test [3] and 1 μg mL^–1 in test [4]. Besides, the “MIC of imipenem … of inhibitor” value in test [5] is 16 μg mL^–1. In addition, the “MIC of ampicillin … of inhibitor” value in test [6] is on record as 1024 μg mL^–1.

What is called MIC is the lowest concentration that inhibits growth of the organism. Consider `CC(C)(O/N=C(\C(=O)N[C@@H]1C(=O)N2C(C(=O)[O-])=C(C[n+]3ccccc3)CS[C@H]12)c1csc(N)n1)C(=O)O` [CAZ, ceftazidime, reference compound], for which the MIC in test [1] (setting [8]) is over 64 µg/mL; in test [1] (setting [9]), at most 0.06 µg/mL; in test [2] (setting [8]) it was 32 µg/mL; in test [2] (setting [9]), at most 0.06 µg/mL; in test [3] (Escherichia coli, MG1655, read-out: MIC of ceftazidime without an inhibitor), 1020 µg/mL; in test [4] (setting [8]), 16 µg/mL. Also, the MIC in test [4] (setting [9]) is at most 0.06 µg/mL; in test [7] (setting [8]), 8 µg/mL; in test [7] (setting [9]), 1 µg/mL.

Regarding `CC1(C)[C@H](C(=O)[O-])N2C(=O)/C(=C/c3cc(CCCOC(=O)Cc4ccc(O)c(O)c4)ccn3)[C@H]2S1(=O)=O.[Na+]` [Compound 8], the “MIC of ceftazidime in the presence of inhibitor” value in test [1] is on record as 8 μg mL^–1; in test [2], 8 μg mL^–1; in test [3] it was 256 μg mL^–1; in test [4] it was 4 μg mL^–1. For the same compound, the “MIC of imipenem … of inhibitor” value in test [5] is 32 μg mL^–1. Further, in test [6], the “MIC of ampicillin … of inhibitor” value was 1024 μg mL^–1.

Take `C[C@]1(COC(=O)c2cc(Cl)ccc2O)[C@H](C(=O)[O-])N2C(=O)/C(=C/c3ccccn3)[C@H]2S1(=O)=O.[Na+]` [Compound 5]: the “MIC of ceftazidime in the presence of inhibitor” value turned out to be 16 μg mL^–1 in test [1], 0.12 μg mL^–1 in test [2] and 64 μg mL^–1 in test [3]. The “MIC of imipenem … of inhibitor” value in test [5] came to 16 μg mL^–1. Further, the “MIC of ampicillin … of inhibitor” value in test [6] is recorded as 512 μg mL^–1.

On to `C[C@@H](O)[C@H]1C(=O)N2C(C(=O)O)=C(SCCN=CN)C[C@H]12` [IP, imipenem, reference compound], for which the MIC came to 64 µg/mL in test [5] (read-out: MIC of imipenem without an inhibitor) and 0.5 µg/mL in test [5] (read-out: MIC of imipenem, strain without β-lactamase).

These data come from publication PMC11191083 (ACS Omega, 2024).
